Reference: ChEMBL document CHEMBL3580531, “Biotransformation of Curcumenol by Mucor polymorphosporus” (J Nat Prod, 2015)

Test system: RAW264.7
Experiment: Antiinflammatory activity in mouse RAW264.7 cells assessed as inhibition of LPS-induced nitric oxide production after 1 day by Griess assay
Format: functional, cell-based
Details: RAW264.7, 24 h

Row | SMILES | IC50 [µM]
1 | Cc1cc(=O)c(C(C)(C)O)cc2c1C(=O)C[C@@H]2C | 6.4
2 | Cc1cc(C(=O)O)cc2c1C(=O)C[C@@H]2C | 2.8
3 | COc1ccc2c(c1)c(CC(=O)O)c(C)n2C(=O)c1ccc(Cl)cc1 [INDOMETHACIN] | 14.1

More lines, now with the values ahead:

Row | IC50 [µM] | SMILES
4 | 9.6 | CC1=C[C@@]2(O)O[C@@]3(C/C2=C(/C)CO)[C@@H](C)CC[C@@H]13
5 | > 50 | CC(C)=C1C[C@@]23O[C@]1(O)C[C@](C)(O)[C@@H]2CC[C@@H]3C
6 | 18.5 | CC1=C[C@@]2(O)O[C@]3(CC2=C(C)C)[C@H]1[C@H](O)C[C@@H]3C
7 | 6.4 | CC(C)=C1C[C@@]23O[C@]1(O)C=C(CO)[C@@H]2CC[C@@H]3C
8 | 5.4 | CC1=C[C@]2(O)O[C@@]3(CC2=C(C)C)[C@@H](C)CC[C@@H]13 [CURCUMENOL]
